Laboratory results taken from patent US7138361B2, “Herbicidal heterocycles” (E. I. du Pont de Nemours and Company, priority 2000, dated 2006).

Experiments:
Assay type in all cases: in vivo
[1] = tested on: blackgrass (Alopecurus myosuroides); experiment: Test B postemergence; details: 13 to 15 days
Procedure, shortened: (§1)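 Pre: seeded pots sprayed, chemical in non-phytotoxic solvent/surfactant mix. Post: plants 2–18 cm, 1–4 leaf, same formulation. Greenhouse 13–15 d; visual % control vs untreated, 0–100 scale.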

[2] = tested on: Surinam grass (Brachiaria decumbens); experiment: Test B postemergence; details: 13 to 15 days
Procedure, shortened: as §1

[3] = tested on: giant foxtail (Setaria faberii); experiment: Test B postemergence; details: 13 to 15 days
Procedure, shortened: as §1

[4] = tested on: wheat (Triticum aestivum); experiment: Test B postemergence; details: 13 to 15 days
Procedure, shortened: as §1

[5] = tested on: velvetleaf (Abutilon theophrasti); experiment: Test B postemergence; details: 13 to 15 days
Procedure, shortened: as §1

[6] = tested on: corn (Zea mays); experiment: Test B postemergence; details: 13 to 15 days
Procedure, shortened: as §1

[7] = tested on: morning glory (Ipomoea hederacea); experiment: Test B postemergence; details: 13 to 15 days
Procedure, shortened: as §1

[8] = tested on: barnyardgrass (Echinochloa crus-galli); experiment: Test B postemergence; details: 13 to 15 days
Procedure, shortened: as §1

[9] = tested on: pigweed (Amaranthus retroflexus); experiment: Test B postemergence; details: 13 to 15 days
Procedure, shortened: as §1

[10] = tested on: smallflower flatsedge (Cyperus difformis); experiment: Test C flooded paddy test; details: for Flatsedge plant response rating: Flooded Paddy, scale 0 to 100, 0 no effect, 100 complete control; for Plant response rating, Flatsedge: flooded paddy test, scale 0 to 100 (0 no effect, 100 complete control)
Procedure, shortened: (§2)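 Rice and three paddy weeds were grown to the 2-leaf stage under flooded conditions, then treated and kept in a greenhouse for 12–14 days. Response was rated visually against untreated controls on a 0–100 scale, where 100 is complete control.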

[11] = tested on: rice (Oryza saliva); experiment: Test C flooded paddy test; details: for Rice plant response rating: Flooded Paddy, scale 0 to 100, 0 no effect, 100 complete control; for Plant response rating, Rice: flooded paddy test, scale 0 to 100 (0 no effect, 100 complete control)
Procedure, shortened: as §2

[12] = tested on: duck salad (Heteranthera limosa); experiment: Test C flooded paddy test; details: for Ducksalad plant response rating: Flooded Paddy, scale 0 to 100, 0 no effect, 100 complete control; for Plant response rating, Ducksalad: flooded paddy test, scale 0 to 100 (0 no effect, 100 complete control)
Procedure, shortened: as §2

[13] = tested on: barnyardgrass (Echinochloa crus-galli); experiment: Test C flooded paddy test; details: for Barnyardgrass plant response rating: Flooded Paddy, scale 0 to 100, 0 no effect, 100 complete control; for Plant response rating, Barnyardgrass: flooded paddy test, scale 0 to 100 (0 no effect, 100 complete control)
Procedure, shortened: as §2

[14] = tested on: Nightshade; experiment: Test C preemergence; details: Rate 500 g/ha, visual evaluation after 12 to 14 days
[15] = tested on: cocklebur (Xanthium strumarium); experiment: Test B preemergence
Procedure, shortened: as §1

[16] = tested on: Surinam grass (Brachiaria decumbens); experiment: Test B preemergence
Procedure, shortened: as §1

[17] = tested on: crabgrass (Digitaria sanguinalis); experiment: Test B preemergence
Procedure, shortened: as §1

[18] = tested on: giant foxtail (Setaria faberii); experiment: Test B preemergence
Procedure, shortened: as §1

[19] = tested on: lambsquarters (Chenopodium album); experiment: Test B preemergence
Procedure, shortened: as §1

[20] = tested on: velvetleaf (Abutilon theophrasti); experiment: Test B preemergence
Procedure, shortened: as §1

[21] = tested on: rice (Oryza saliva); experiment: Test B preemergence
Procedure, shortened: as §1

[22] = tested on: corn (Zea mays); experiment: Test B preemergence
Procedure, shortened: as §1

[23] = tested on: morning glory (Ipomoea hederacea); experiment: Test B preemergence
Procedure, shortened: as §1

[24] = tested on: barnyardgrass (Echinochloa crus-galli); experiment: Test B preemergence
Procedure, shortened: as §1

[25] = tested on: pigweed (Amaranthus retroflexus); experiment: Test B preemergence
Procedure, shortened: as §1

[26] = tested on: Sunflower; experiment: Test C preemergence; details: scale 0 to 100, 0 no effect, 100 complete control
[27] = Rate 125 g/ha, scale 0 (no effect) to 100 (complete control)
[28] = Rate 500 g/ha, scale 0 to 100, 0 is no effect, 100 is complete control
[29] = Preemergence, Rate 500 g/ha, scale 0 to 100, 0 no effect, 100 complete control
[30] = preemergence, Rate 125 g/ha, scale of 0 to 100 where 0 is no effect and 100 is complete control, 13 to 15 days

COc1cc(OC)cc(N2CCC(n3ccc(C(C)(C)C)n3)C2=O)c1 (stereo not shown) [Compound 71]
Plant response rating, Blackgrass [1, 27]: 0 | Plant response rating, Blackgrass [1, 28]: 0 | Plant response rating, Surinam grass [2, 27]: 0 | Plant response rating, Surinam grass [2, 28]: 30 | Plant response rating, Foxtail, Giant [3, 27]: 0 | Plant response rating, Foxtail, Giant [3, 28]: 20 | Plant response rating, Wheat [4, 27]: 0 | Plant response rating, Wheat [4, 28]: 0 | Plant response rating, Velvetleaf [5, 27]: 0 | Plant response rating, Velvetleaf [5, 28]: 20 | Plant response rating, Corn [6, 27]: 0 | Plant response rating, Corn [6, 28]: 0 | Plant response rating, Morningglory [7, 27]: 20 | Plant response rating, Morningglory [7, 28]: 20 | Plant response rating, Barnyardgrass [8, 27]: 0 | Plant response rating, Barnyardgrass [8, 28]: 0 | Plant response rating, Pigweed [9, 27]: 30 | Plant response rating, Pigweed [9, 28]: 60 | Flatsedge plant response rating ([10]; Rate 250 g/ha): 100 | Flatsedge plant response rating ([10]; Rate 500 g/ha): 100 | Plant response rating, Flatsedge ([10]; Rate 62 g/ha): 80 | Plant response rating, Flatsedge ([10]; Rate 125 g/ha): 100 | Rice plant response rating ([11]; Rate 250 g/ha): 0 | Rice plant response rating ([11]; Rate 500 g/ha): 60 | Plant response rating, Rice ([11]; Rate 62 g/ha): 0 | Plant response rating, Rice ([11]; Rate 125 g/ha): 0 | Ducksalad plant response rating ([12]; Rate 250 g/ha): 30 | Ducksalad plant response rating ([12]; Rate 500 g/ha): 30 | Plant response rating, Ducksalad ([12]; Rate 62 g/ha): 0 | Plant response rating, Ducksalad ([12]; Rate 125 g/ha): 20 | Barnyardgrass plant response rating ([13]; Rate 250 g/ha): 0 | Barnyardgrass plant response rating ([13]; Rate 500 g/ha): 80 | Plant response rating, Barnyardgrass ([13]; Rate 62 g/ha): 0 | Plant response rating, Barnyardgrass ([13]; Rate 125 g/ha): 0 | Plant response rating (0 to 100), Nightshade [14]: 30 | Plant response rating, Cocklebur [15, 29]: 0 | Plant response rating, Cocklebur [15, 30]: 0 | Plant response rating, Surinam grass [16, 29]: 40 | Plant response rating, Surinam grass [16, 30]: 40 | Plant response rating, Crabgrass [17, 29]: 100 | Plant response rating, Crabgrass [17, 30]: 50 | Plant response rating, Foxtail, Giant [18, 29]: 100 | Plant response rating, Foxtail, Giant [18, 30]: 90 | Plant response rating, Lambsquarters [19, 29]: 100 | Plant response rating, Lambsquarters [19, 30]: 100 | Plant response rating, Velvetleaf [20, 29]: 30 | Plant response rating, Velvetleaf [20, 30]: 0 | Plant response rating, Rice [21, 29]: 40 | Plant response rating, Rice [21, 30]: 20 | Plant response rating, Corn [22, 29]: 20 | Plant response rating, Corn [22, 30]: 0 | Plant response rating, Morningglory [23, 29]: 0 | Plant response rating, Morningglory [23, 30]: 0 | Plant response rating, Barnyardgrass [24, 29]: 90 | Plant response rating, Barnyardgrass [24, 30]: 10 | Plant response rating, Pigweed [25, 29]: 100 | Plant response rating, Pigweed [25, 30]: 100 | Plant response rating, Sunflower ([26]; Rate 125 g/ha): 0 | Plant response rating, Sunflower ([26]; Rate 250 g/ha): 0

CC(C)(C)c1ccn(C2CCN(c3cccc(SC(F)(F)F)c3)C2=O)n1 (stereo not shown) [Compound 93]
Plant response rating, Blackgrass [1, 27]: 0 | Plant response rating, Blackgrass [1, 28]: 0 | Plant response rating, Surinam grass [2, 27]: 0 | Plant response rating, Surinam grass [2, 28]: 0 | Plant response rating, Foxtail, Giant [3, 27]: 0 | Plant response rating, Foxtail, Giant [3, 28]: 0 | Plant response rating, Wheat [4, 28]: 0 | Plant response rating, Velvetleaf [5, 28]: 10 | Plant response rating, Corn [6, 27]: 0 | Plant response rating, Corn [6, 28]: 0 | Plant response rating, Morningglory [7, 28]: 10 | Plant response rating, Barnyardgrass [8, 27]: 0 | Plant response rating, Barnyardgrass [8, 28]: 0 | Plant response rating, Pigweed [9, 28]: 20 | Flatsedge plant response rating ([10]; Rate 250 g/ha): 100 | Flatsedge plant response rating ([10]; Rate 500 g/ha): 100 | Plant response rating, Flatsedge ([10]; Rate 62 g/ha): 0 | Plant response rating, Flatsedge ([10]; Rate 125 g/ha): 100 | Rice plant response rating ([11]; Rate 250 g/ha): 20 | Rice plant response rating ([11]; Rate 500 g/ha): 80 | Plant response rating, Rice ([11]; Rate 62 g/ha): 0 | Ducksalad plant response rating ([12]; Rate 250 g/ha): 100 | Ducksalad plant response rating ([12]; Rate 500 g/ha): 100 | Plant response rating, Ducksalad ([12]; Rate 62 g/ha): 0 | Plant response rating, Ducksalad ([12]; Rate 125 g/ha): 90 | Barnyardgrass plant response rating ([13]; Rate 250 g/ha): 60 | Barnyardgrass plant response rating ([13]; Rate 500 g/ha): 70 | Plant response rating, Barnyardgrass ([13]; Rate 62 g/ha): 0 | Plant response rating, Barnyardgrass ([13]; Rate 125 g/ha): 50 | Plant response rating (0 to 100), Nightshade [14]: 10 | Plant response rating, Cocklebur [15, 29]: 0 | Plant response rating, Cocklebur [15, 30]: 0 | Plant response rating, Surinam grass [16, 29]: 70 | Plant response rating, Surinam grass [16, 30]: 0 | Plant response rating, Crabgrass [17, 29]: 100 | Plant response rating, Crabgrass [17, 30]: 20 | Plant response rating, Foxtail, Giant [18, 29]: 90 | Plant response rating, Foxtail, Giant [18, 30]: 20 | Plant response rating, Lambsquarters [19, 29]: 100 | Plant response rating, Lambsquarters [19, 30]: 60 | Plant response rating, Velvetleaf [20, 29]: 0 | Plant response rating, Velvetleaf [20, 30]: 0 | Plant response rating, Rice [21, 29]: 0 | Plant response rating, Rice [21, 30]: 0 | Plant response rating, Corn [22, 29]: 0 | Plant response rating, Corn [22, 30]: 0 | Plant response rating, Morningglory [23, 29]: 0 | Plant response rating, Morningglory [23, 30]: 0 | Plant response rating, Barnyardgrass [24, 29]: 100 | Plant response rating, Barnyardgrass [24, 30]: 0 | Plant response rating, Pigweed [25, 29]: 80 | Plant response rating, Pigweed [25, 30]: 0 | Plant response rating, Sunflower ([26]; Rate 250 g/ha): 0
